Test results from patent US20050214894A1, “High throughput assay” (priority 2004, published 2005).

Legend:
[1] = target: T1, FIH (Homo sapiens, UniProt Q9NWT6); assay: FIH activity assay: 2-OG consumption detected by OPD derivatisation and fluorescence; format: biochemical; details: for effect on 2-OG consumption by FIH: inhibitor 1 mM, in the presence of prime substrate and 2-OG, FIG. 7
T1 construct: FIH and GST-tagged HIF-1α 786-826 were prepared as described previously; made in house
Experimental: The assay of FIH activity was carried out by mixing 1 mM DTT, 0.6 mg/ml catalase, 2-OG, substrate and 50 mM Tris/HCl pH 7.5 to a final volume of 88 μl warming to 37° C. for 5 minutes in a water bath. Simultaneously, the enzyme and iron (prepared as 500 mM stock in 20 mM HCl, and diluted with water) were mixed at room temperature for 3 minutes. Reaction was initiated by addition of 12 μl of enzyme/iron mix to the substrate/cofactor mix. The reaction was stopped by addition of 200 μl 0.5M HCl; derivatisation was then achieved by the addition of 100 μl 10 mg/ml OPD in 0.5M HCl, and heating for 10 minutes at 95° C. in a heating block.

[2] = target: T2, PHD2 (Homo sapiens, UniProt Q9GZT9); assay: PHD2 activity assay: 2-OG consumption detected by OPD derivatisation and fluorescence; format: biochemical; details: inhibitor 1 mM; Tris and HEPES buffers; FIG. 9
T2 construct: a form of the enzyme that has had the first 180 amino acids (including those containing a MYND finger motif) removed; made in house; host or cells: Escherichia coli BL21(DE3)
T2 sequence (Q9GZT9 with tags, fused parts or gaps): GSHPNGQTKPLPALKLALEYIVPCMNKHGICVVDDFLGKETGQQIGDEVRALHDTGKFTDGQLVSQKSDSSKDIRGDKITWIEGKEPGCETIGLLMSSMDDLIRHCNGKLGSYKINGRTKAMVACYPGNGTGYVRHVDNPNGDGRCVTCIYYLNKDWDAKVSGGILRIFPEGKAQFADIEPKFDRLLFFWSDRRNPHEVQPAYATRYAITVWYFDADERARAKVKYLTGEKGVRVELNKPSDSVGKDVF
Source text: The PHD2 used was a form of the enzyme that has had the first 180 amino acids (including those containing a MYND finger motif) removed. Thus the enzyme, after removal of the affinity tag, has a N-terminus of […]; we have found this form of PHD2 to be preferred in the in vitro assays. The enzyme was expressed from the pET28a(+) vector (Novagen), with the gene cloned between NheI and BamHI restriction sites. Growth and induction were using standard techniques, in that the pET28a(+) vector was transformed into BL21(DE3) Escherichia coli cells, and grown in 2TY medium at 37° C. until the absorbance of the solution of 600 nm was 0.8. IPTG was added to a final concentration of 0.5 mM and growth was continued for three hours. Affinity purification using Novagen His-Bind resin was as per the manufacturers instructions.
The assay was carried out as for the FIH, but the buffer used was 50 mM HEPES pH7.0.

T1 sequence (Q9NWT6 whole entry): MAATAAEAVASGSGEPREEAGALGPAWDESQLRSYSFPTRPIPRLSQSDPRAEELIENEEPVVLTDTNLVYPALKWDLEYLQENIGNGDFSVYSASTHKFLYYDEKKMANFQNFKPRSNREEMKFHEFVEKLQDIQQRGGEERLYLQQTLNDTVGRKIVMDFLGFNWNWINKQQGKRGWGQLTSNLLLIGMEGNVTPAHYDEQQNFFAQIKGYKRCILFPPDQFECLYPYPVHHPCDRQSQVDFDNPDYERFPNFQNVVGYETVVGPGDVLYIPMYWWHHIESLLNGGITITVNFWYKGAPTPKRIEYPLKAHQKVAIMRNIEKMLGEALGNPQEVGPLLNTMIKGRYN

effect on 2-OG consumption by FIH [1]	IC50 [1]	inhibition of PHD2 [2]	SMILES
eliminated the 2-OG consumption by FIH			O=C(O)c1c[nH]c2c(ccc3cccnc32)c1=O [FG0041]
eliminated the 2-OG consumption by FIH	40 µM		O=C(O)CNC(=O)C(=O)O [N-oxalylglycine]
		little, if any, inhibition of PHD2	O=C(O)C(=O)N[C@H](Cc1ccccc1)C(=O)O [NOFD, N-oxalyl-D-phenylalanine]
